Source: ChEMBL document CHEMBL4622932, “Design, synthesis and biological evaluation of new Myo-inositol derivatives as potential RAS inhibitors” (Bioorg Med Chem Lett, 2020)
pIC50: −log10 of the molar value.

How the values were obtained:
[1] = biological target: GTPase KRas (Homo sapiens) (UniProt P01116); test: Inhibition of KRAS in human MCF7 cells assessed as reduction in MEK1/2 9G3 protein level at 25 uM measured after 24 hrs by Western blot analysis relative to control; format: cell-based
MDA-MB-231 [2] = test: Induction of necrosis in human MDA-MB-231 cells; format: functional, cell-based
[3] = biological target: GTPase KRas (Homo sapiens) (UniProt P01116); test: Inhibition of KRAS in human MCF7 cells assessed as reduction in Pan RAS protein level at 25 uM measured after 24 hrs by Western blot analysis relative to control; format: cell-based
MDA-MB-231 [4] = test: Induction of apoptosis in human MDA-MB-231 cells assessed as necrotic cells at 25 uM measured after 48 hrs by annexinV-FITC/propidium iodide staining based flow cytometry (reference value: 0.31 %); format: functional
[5] = biological target: GTPase KRas (Homo sapiens) (UniProt P01116); test: Inhibition of KRAS in human MDA-MB-231 cells assessed as reduction in phosphorylated ERK1/2 at Thr185/Tyr187 residues protein level at 25 uM measured after 24 hrs by Western blot analysis relative to control; format: cell-based
[6] = biological target: GTPase KRas (Homo sapiens) (UniProt P01116); test: Inhibition of KRAS in human MCF7 cells assessed as reduction in ERK1/2 137F5 protein level at 25 uM measured after 24 hrs by Western blot analysis relative to control; format: cell-based
MDA-MB-231 [7] = test: Cell cycle arrest in human MDA-MB-231 cells assessed as accumulation at G1 phase at 15 uM measured after 48 hrs by propidium iodide/RNase staining based flow cytometry (reference value: 74.56 %); format: functional
[8] = biological target: GTPase KRas (Homo sapiens) (UniProt P01116); test: Inhibition of KRAS in human MDA-MB-231 cells assessed as reduction in MEK1/2 9G3 protein level at 25 uM measured after 24 hrs by Western blot analysis relative to control; format: cell-based
[9] = biological target: GTPase KRas (Homo sapiens) (UniProt P01116); test: Inhibition of KRAS in human MCF7 cells assessed as reduction in phosphorylated MEK1/2 at Ser217/221 residues protein level at 25 uM measured after 24 hrs by Western blot analysis relative to control; format: cell-based
MDA-MB-231 [10] = test: Induction of apoptosis in human MDA-MB-231 cells assessed as necrotic cells at 15 uM measured after 48 hrs by annexinV-FITC/propidium iodide staining based flow cytometry (reference value: 0.31 %); format: functional
[11] = biological target: GTPase KRas (Homo sapiens) (UniProt P01116); test: Inhibition of KRAS in human MDA-MB-231 cells assessed as reduction in phosphorylated RAF-1 E1 protein level at 35 uM measured after 24 hrs by Western blot analysis relative to control; format: cell-based
[12] = biological target: GTPase KRas (Homo sapiens) (UniProt P01116); test: Inhibition of KRAS in human MCF7 cells assessed as reduction in MEK1/2 9G3 protein level at 35 uM measured after 24 hrs by Western blot analysis relative to control; format: cell-based
HEK-293T = test: Cytotoxicity against human 293T cells assessed as reduction in cell viability measured after 48 hrs by MTT assay; format: cell-based
[13] = biological target: GTPase KRas (Homo sapiens) (UniProt P01116); test: Inhibition of KRAS in human MDA-MB-231 cells assessed as reduction in phosphorylated MEK1/2 at Ser217/221 residues protein level at 35 uM measured after 24 hrs by Western blot analysis relative to control; format: cell-based
MCF7 [14] = test: Induction of apoptosis in human MCF7 cells assessed as live cells at 25 uM measured after 48 hrs by annexinV-FITC/propidium iodide staining based flow cytometry (reference value: 99.71 %); format: functional
[15] = biological target: GTPase KRas (Homo sapiens) (UniProt P01116); test: Inhibition of KRAS in human MCF7 cells assessed as reduction in phosphorylated MEK1/2 at Ser217/221 residues protein level at 35 uM measured after 24 hrs by Western blot analysis relative to control; format: cell-based
[16] = biological target: GTPase KRas (Homo sapiens) (UniProt P01116); test: Inhibition of KRAS in human MDA-MB-231 cells assessed as reduction in MEK1/2 9G3 protein level at 35 uM measured after 24 hrs by Western blot analysis relative to control; format: cell-based
[17] = biological target: GTPase KRas (Homo sapiens) (UniProt P01116); test: Inhibition of KRAS in human MCF7 cells assessed as reduction in MEK1/2 9G3 protein level at 15 uM measured after 24 hrs by Western blot analysis relative to control; format: cell-based
[18] = biological target: GTPase KRas (Homo sapiens) (UniProt P01116); test: Inhibition of KRAS in human MCF7 cells assessed as reduction in Pan RAS protein level at 35 uM measured after 24 hrs by Western blot analysis relative to control; format: cell-based
[19] = biological target: GTPase KRas (Homo sapiens) (UniProt P01116); test: Inhibition of KRAS in human MDA-MB-231 cells assessed as reduction in Pan RAS protein level at 35 uM measured after 24 hrs by Western blot analysis relative to control; format: cell-based
[20] = biological target: GTPase KRas (Homo sapiens) (UniProt P01116); test: Inhibition of KRAS in human MDA-MB-231 cells assessed as reduction in ERK1/2 137F5 protein level at 25 uM measured after 24 hrs by Western blot analysis relative to control; format: cell-based
MDA-MB-231 [21] = test: Induction of apoptosis in human MDA-MB-231 cells assessed as live cells at 25 uM measured after 48 hrs by annexinV-FITC/propidium iodide staining based flow cytometry (reference value: 99 %); format: functional
[22] = biological target: GTPase KRas (Homo sapiens) (UniProt P01116); test: Inhibition of KRAS in human MCF7 cells assessed as reduction in Pan RAS protein level at 15 uM measured after 24 hrs by Western blot analysis relative to control; format: cell-based
[23] = biological target: GTPase KRas (Homo sapiens) (UniProt P01116); test: Inhibition of KRAS in human MDA-MB-231 cells assessed as reduction in phosphorylation of MEK measured after 24 hrs by Western blot analysis; format: cell-based
MCF7 [24] = test: Induction of apoptosis in human MCF7 cells assessed as late apoptotic cells at 25 uM measured after 48 hrs by annexinV-FITC/propidium iodide staining based flow cytometry (reference value: 0.17 %); format: functional
MDA-MB-231 [25] = test: Induction of apoptosis in human MDA-MB-231 cells assessed as live cells at 15 uM measured after 48 hrs by annexinV-FITC/propidium iodide staining based flow cytometry (reference value: 99 %); format: functional
MDA-MB-231 [26] = test: Cell cycle arrest in human MDA-MB-231 cells assessed as accumulation at G2 phase at 25 uM measured after 48 hrs by propidium iodide/RNase staining based flow cytometry (reference value: 3.35 %); format: functional
MCF7 [27] = test: Induction of apoptosis in human MCF7 cells assessed as live cells at 15 uM measured after 48 hrs by annexinV-FITC/propidium iodide staining based flow cytometry (reference value: 99.71 %); format: functional
MCF7 [28] = test: Induction of apoptosis in human MCF7 cells assessed as necrotic cells at 25 uM measured after 48 hrs by annexinV-FITC/propidium iodide staining based flow cytometry (reference value: 0.08 %); format: functional
[29] = biological target: GTPase KRas (Homo sapiens) (UniProt P01116); test: Inhibition of KRAS in human MCF7 cells assessed as reduction in phosphorylated ERK1/2 at Thr185/Tyr187 residues protein level at 15 uM measured after 24 hrs by Western blot analysis relative to control; format: cell-based
MDA-MB-231 [30] = test: Induction of apoptosis in human MDA-MB-231 cells assessed as late apoptotic cells at 15 uM measured after 48 hrs by annexinV-FITC/propidium iodide staining based flow cytometry (reference value: 0 %); format: functional
[31] = biological target: GTPase KRas (Homo sapiens) (UniProt P01116); test: Inhibition of KRAS in human MDA-MB-231 cells assessed as reduction in phosphorylated RAF-1 E1 protein level at 25 uM measured after 24 hrs by Western blot analysis relative to control; format: cell-based
[32] = biological target: GTPase KRas (Homo sapiens) (UniProt P01116); test: Inhibition of KRAS in human MDA-MB-231 cells assessed as reduction in phosphorylation of ERK measured after 24 hrs by Western blot analysis; format: cell-based
[33] = biological target: GTPase KRas (Homo sapiens) (UniProt P01116); test: Inhibition of KRAS in human MCF7 cells assessed as reduction in phosphorylated RAF-1 E1 protein level at 15 uM measured after 24 hrs by Western blot analysis relative to control; format: cell-based

O=P(Oc1ccccc1)(Oc1ccccc1)OC1C2OC3(c4ccccc4)OC(C2O)C(O)C1O3 (centres undefined)
fold change (FC) [1]: 1.06
Activity (MDA-MB-231 [2]): Dose-dependent effect
fold change (FC) [3]: 1.16
Activity (MDA-MB-231 [4]): 16.64%
fold change (FC) [5]: 1
fold change (FC) [6]: 1.14
Activity (MDA-MB-231 [7]): 34.45%
fold change (FC) [8]: 0.61
fold change (FC) [9]: 1.12
Activity (MDA-MB-231 [10]): 7.3%
fold change (FC) [11]: 0.17
fold change (FC) [12]: 0.87
pIC50 (HEK-293T): 4.40
fold change (FC) [13]: 0.53
Activity (MCF7 [14]): 36.83%
fold change (FC) [15]: 0.86
fold change (FC) [16]: 0.46
fold change (FC) [17]: 0.97
fold change (FC) [18]: 1.11
fold change (FC) [19]: 0.46
fold change (FC) [20]: 0.91
Activity (MDA-MB-231 [21]): 62.65%
fold change (FC) [22]: 0.99
inhibition [23]: Dose-dependent effect
Activity (MCF7 [24]): 0.49%
Activity (MDA-MB-231 [25]): 91.93%
Activity (MDA-MB-231 [26]): 0%
Activity (MCF7 [27]): 32.46%
Activity (MCF7 [28]): 61.44%
fold change (FC) [29]: 1.02
Activity (MDA-MB-231 [30]): 0.39%
fold change (FC) [31]: 0.14
inhibition [32]: Dose-dependent effect
fold change (FC) [33]: 1.06
